Assay results taken from paper PMC4912613, “A broad analysis of resistance development in the malaria parasite” (Nature Communications, 2016).
Read-outs that look alike come from different tables or passages of the source.

Columns and labels:
Dd2 = assay: Cross-resistance EC50 assay, Dd2 parent; assay type: cell-based, Plasmodium falciparum; conditions: for EC50: Plasmodium falciparum, DD2, 72 h
Text: Multidrug resistance alleles, including mutations in P. falciparum chloroquine resistance transporter (pfcrt) and P. falciparum multi-drug resistance transporter 1 (pfmdr1) are very common in field isolates. Therefore, we sought to assess the degree to which pre-existing resistance alleles would contribute to a loss of potency for this diverse collection of small molecule compounds. Fifteen clones derived from three main parent lines were chosen to maximize diversity in mutated pathways and genetic backgrounds, thus representing the variety of resistance seen in the field: 3D7 (ref. [23]), W2 (ref. [24]) or Dd2 (ref. [25]). The 3D7 line originates from the clone of a Netherlands clinical isolate strain[23][26] and is generally considered to be drug sensitive, though it does convey resistance to sulfadoxine. Conversely, W2 (ref. [24], [27]) and Dd2 (ref. [25]) are multi-drug-resistant lines originating from the Indochina III/CDC isolate, which contain point mutations in pfcrt as well as amplifications in pfmdr1 and GTP cyclohydrolase.
To evaluate potential overlapping activity against known antimalarial drug targets, we performed dose-response studies with each compound against our assembled set of drug-resistant lines and their corresponding parents, in an asexual blood stage proliferation assay (Table 1). Comparisons were made to the drug-sensitive strain 3D7 when a parent was unavailable (TM90C2A, W2 and Dd2). As laboratories conducted EC50 assays with different strains and protocols, all comparisons were made between assays from the same laboratory and under the same assay conditions. Compounds displaying >5-fold EC50 shifts relative to the parent or sensitive strain were flagged as having potentially non-novel targets. Average fold shifts per strain ranged from 0.82 to 2.34, with a median of 1.23 indicating there was not common resistance to any one resistant clone. No resistance patterns were observed when classifying the compounds based on chemical structure, but this was not surprising given the diversity of compounds chosen. On the other hand, given that these confirmed compounds were derived from larger unconfirmed hit lists to which some filtration criteria may have been applied (for example, elimination of obvious dihydrofolate reductase inhibitors[32]), some[10][11][12][13] pre-existing bias may exist in the set. […]
Alternatively, a SYBR Green-based proliferation approach was used for the 72-h assay, as previously described. Briefly, a culture of either synchronized or asynchronous parasitized RBCs (0.3% parasitemia and 4% haematocrit) in screening medium (identical to supplemented medium above except no serum was added) was exposed to serial drug dilutions. Plates were incubated at 37 °C and gassed with 93% N2, 4% CO2 and 3% O2 for 72 h. Following incubation, 10 × SYBR Green I (Invitrogen; supplied in 10,000 × concentration) in lysis buffer ([…], 5 mM EDTA, 0.16% Saponin wt per vol and 1.6% Triton X vol per vol) was added to the wells and the plates were incubated overnight at room temperature before plate reading. EC50 assays were repeated three times, taking the average EC50 value from each assay set, and removing any outliers using a single iteration of Grubbs' test, eliminating values with z-scores above the critical z-value (α=0.05). The raw EC50 values for synchronized parasites assayed in a 384-well format are listed in Supplementary Data 4. The raw EC50 values for asynchronous parasites assayed in a 96 or 1536-well format are listed in Supplementary Data 5.
EC50 values for each strain were compared with those of the corresponding parent strain to determine fold-shift changes and identify resistance. To minimize the cause variance between assays, all comparisons were conducted between strains assayed under identical conditions. A one-way ANOVA followed by a Dunnet's post-test was conducted in GraphPad Prism to identify significant changes between the parent and resistant strain.

3D7 = assay: Cross-resistance EC50 assay, 3D7 parent / sensitive strain; assay type: cell-based; conditions: Plasmodium falciparum
Method in brief: (§1)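 P. falciparum asexual blood-stage proliferation, parent/sensitive strain of each resistant clone; 48-h assay with rings (0.5% parasitemia, 2.0% haematocrit) in RPMI-1640/5% AlbuMAX, ^3H-hypoxanthine added at 24 h, normalized to no-drug and 2 μM artesunate controls; alternatively 72-h SYBR Green assay (0.3% parasitemia, 4% haematocrit). EC50s from triplicate fits.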

W2 = assay: Cross-resistance EC50 assay, W2 parent; assay type: cell-based, Plasmodium falciparum; conditions: for EC50: Plasmodium falciparum, 48 h, read-out: W2F6 (PARENT) Average EC50
Method in brief: as §1

[1] = read-out: Dd2 (PARENT) Average EC50
[2] = read-out: Dd2 (PARENT) EC50 (µM) Average EC50
[3] = SYBR green 72 hour assay, asynchronized parasites, 96-well or 1536-well format, 3D7 parent, read-out: 3D7 (PARENT) EC50 (µM) Average EC50
[4] = SYBR green 72 hour assay, synchronized parasites, 384-well format, strain 3D7 (parent), read-out: 3D7 (PARENT) Average EC50
[5] = hypoxanthine 48-hour assay, synchronized parasites, 96-well format, strain 3D7 (parent), read-out: 3D7 (PARENT) Average EC50
[6] = hypoxanthine 48-hour assay, synchronized parasites, 96-well format, strain 3D7-C9-WT (parent of PfATP4 Mut3), read-out: 3D7-C9-WT (PARENT) Average EC50

| SMILES | EC50 (Dd2; [1]) [µM] | EC50 (Dd2; [2]) [µM] | EC50 (3D7; [3]) [µM] | EC50 (3D7; [4]) [µM] | EC50 (3D7; [5]) [µM] | EC50 (3D7; [6]) [µM] | EC50 (W2) [nM] | EC50 fold-shift, Dd2 compared with 3D7 (Dd2; loss of efficacy) [×] | potency against W2 strains (W2; compared with 3D7) | EC50 fold-shift, Dd2 compared with 3D7, average (Dd2; average) [×] | EC50 fold-shift, W2 compared with 3D7 (W2; loss of efficacy) [×] |
| --- | --- | --- | --- | --- | --- | --- | --- | --- | --- | --- | --- |
| Cc1nc2ccc3ccc(CNc4ccc(C(=O)CC(CCC(=O)O)C(=O)O)cc4)cc3c2c(=O)[nH]1.Cl (stereo not shown) [MMV027634] | 0.035 | 0.124 | 0.148 | 0.029 | 0.025 | 0.042 | 62 | – | – | – | – |
| CC(C)c1cccc(C(NC(=O)C2Cc3ccccc3CN2C(=O)c2cccc(N3CCOCC3)c2)C2CCCC2)c1 (stereo not shown) [MMV028038] | 0.299 | 0.622 | 1.09 | 0.822 | 0.577 | 0.833 | 489 | – | – | – | – |
| CN(C)CCCN(C)C(=O)C1Cc2cc(-c3ccccc3)ccc2N1S(=O)(=O)c1ccccc1 (stereo not shown) [MMV028895] | 0.349 | 6.01 | 0.625 | 0.049 | 0.081 | 0.052 | 153 | 7.1 | maintained potency | – | – |
| O=C(NCC(CCCN1CCC(c2c[nH]c3ccccc23)CC1)c1ccccc1)Nc1ccc(Cl)c(Cl)c1 (stereo not shown) [MMV029272] | 0.824 | 0.285 | 2.87 | 0.17 | 0.139 | 0.115 | 836 | – | – | – | – |
| CC(C)(C)OC(=O)N1CCN(c2ccccc2NC(=O)c2cccc(C(F)(F)F)c2Oc2ccc(F)cc2)CC1 [MMV030666] | 0.374 | 0.255 | 0.122 | 0.627 | 0.494 | 0.333 | 298 | – | – | – | – |
| CC(NCc1ccccc1)c1cc(Cl)ccc1O (stereo not shown) [MMV665789] | 0.482 | 0.333 | 0.17 | 1 | 1.25 | 1.25 | 147 | – | – | – | – |
| FC(F)(F)c1cccc(Nc2nc3ccccc3nc2Nc2cccc(C(F)(F)F)c2)c1 [MMV665794] | 0.113 | 0.199 | 0.318 | 0.164 | 0.103 | – | 181 | – | – | – | – |
| O=C(Nc1ccc(Cl)c(Cl)c1)Nc1ccc(Cl)c(Cl)c1 [MMV665852] | 0.894 | 1.8 | 1.55 | 1.16 | 1.24 | – | 1590 | – | – | – | – |
| OC(CNC1CCCCC1)Cn1c2ccc(I)cc2c2cc(I)ccc21 (stereo not shown) [MMV665882] | 0.05 | 0.038 | 0.023 | 0.035 | 0.075 | 0.158 | 26 | – | – | – | – |
| O=C(Nc1ccccc1O)c1ccc(Oc2cccc(C(=O)Nc3ccccc3O)c2)cc1 [MMV665888] | 0.623 | 0.66 | 0.295 | 0.614 | 1.16 | – | 515 | – | – | – | – |
| COc1ccc(C(=O)C2CC2c2ccc(Cl)cc2)cc1 (stereo not shown) [MMV665924] | 1.19 | 1.58 | 2.46 | 0.976 | 0.824 | 0.487 | 1380 | – | – | – | – |
| CCC(C)NCC(O)(c1ccc(Cl)cc1)c1ccc(Cl)cc1 (stereo not shown) [MMV665928] | 0.427 | 0.331 | 0.028 | 0.972 | 0.494 | 1.16 | 137 | – | – | – | – |
| O=C(Nc1ccsc1C(=O)NC1CCCCC1)c1ccc(F)cc1 [MMV665939] | 1.96 | 2.06 | 1.22 | 0.726 | 1.04 | 2.1 | 9880 | – | – | 2.4 | 9.5 |
| Nc1ccc(-c2nc3cc(Cc4ccc5[nH]c(-c6ccc(N)cc6)nc5c4)ccc3[nH]2)cc1 [MMV665943] | 0.412 | 0.488 | 0.034 | 0.369 | 0.316 | 0.198 | 191 | – | – | – | – |
| O=C(NC(c1ccccc1)c1ccc2cccnc2c1O)c1ccccc1 (stereo not shown) [MMV666080] | 0.426 | 0.886 | 0.723 | 0.682 | 0.845 | 3.92 | 3160 | – | – | – | – |
| COc1cc(C(=O)ON=C(N)Cc2cccc3ccccc23)cc(OC)c1OC [MMV666687] | 0.314 | 0.87 | 1 | 0.89 | 0.351 | 0.294 | 463 | – | – | – | – |
| c1cc(-c2cnc3ccc(-c4ccc(N5CCOCC5)cc4)nn23)ccn1 [MMV668311] | 0.056 | 0.039 | 0.014 | 0.033 | 0.05 | 0.018 | 29 | – | – | – | – |
| c1cncc(-c2cc(N3CCC(CN4CCOCC4)CC3)nc(-c3ccncc3)n2)c1 [MMV668399] | 0.087 | 0.984 | 0.322 | 0.089 | 0.081 | 0.072 | 164 | – | – | – | – |
